From PubChem BioAssay AID179 (DTP/NCI, 2004)
Values joined by “and” are separate entries in the source; they are usually repeats but may differ in a detail not shown here. Equal entries are not always repeated. Active and inactive are the calls of the source.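 Rule for the calls: active = compounds giving half or more protection of infected cells from virus-caused growth loss, again on retest; inactive = the rest.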

Test system: CEM cells HIV-1 protection, formazan growth assay
Assay: NCI AIDS Antiviral Assay
Conditions: for IC50: measured here: growth of uninfected CEM cells
Outline: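 Human CEM cells, uninfected and HIV-1-infected, exposed to five drug concentrations; growth measured by soluble formazan assay and scored as percent protection from infection, with protecting compounds retested.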

SMILES	EC50	IC50	outcome
CCOC(=O)CC1(CC(=O)OCC)C(=O)N(C)c2ccccc21	> 200 µM	> 200 µM	–
COc1ccccc1/C=C1\Cc2ccccc2C1=O	> 20.9 µM	> 20.9 µM	–
CN(/N=C/c1ccc(Cl)c(Cl)c1)C1=NCCCCN1	> 200 µM	26.3 µM	–
COc1ccc(S(=O)(=O)N/N=C/CN2C(=O)c3ccccc3C2=O)cc1	> 135 µM	> 135 µM	–
O=C(O)C(=Cc1ccc(Br)cc1)C(=O)O	> 912 µM	> 912 µM	–
CC(=O)C1CC[C@@H](C)[C@@H]2CC[C@@]3(C)OO[C@@]12[C@H](OC=O)O3 (stereo partly drawn)	> 200 µM	27.5 µM	–
CN1c2c(nc(N)[nH]c2=O)NCC1CCNc1ccc(C(=O)NC(CCC(=O)O)C(=O)O)cc1 (stereo not drawn)	> 240 µM	204 µM	–
O=CC(=O)C(C(=O)O)[N+](=O)[O-] (stereo not drawn)	> 200 µM	> 200 µM	–
CC12CCC(=O)[C@@]1(C)CCCC2=O (stereo partly drawn)	–	–	inactive
O=C(c1cccc(Cl)c1)c1c(O)c2ccccc2oc1=O	–	–	inactive
CCOC(=O)CCC(NC(=O)c1ccc(Nc2nc3cc(C(F)(F)F)ccc3nc2C(=O)OCC)cc1)C(=O)OCC (stereo not drawn)	> 191 µM	4.57 µM	–
O=[N+]([O-])c1c(Cl)ccc2nsnc12	> 316 µM	2.04 µM	–
CCN(C(=O)N[C@@H](CC(C)C)C(=O)NCC(=O)OC)c1ccccc1	> 200 µM	110 µM	–
CC1CCC2(C)C(CC=C(C=O)C2(O)C=O)C12CO2 (stereo not drawn)	–	–	inactive
O=C(O)c1cc2c([nH]1)-c1cc(C(=O)O)c(C(=O)O)nc1C(=O)C2=O	–	–	inactive
C#CC(O)c1ccc(OC)c(OC)c1 (stereo not drawn)	–	–	inactive
CC(=O)OC1COC(Nc2nc(N)n(C)c(=O)c2N=O)C(OC(C)=O)C1OC(C)=O (stereo not drawn)	> 200 µM	> 200 µM	–
O=c1nc2sc3ccccc3c(=O)n2[nH]1	> 204 µM	77.6 µM	–
CC(C)/C(Cl)=N/OC(=O)Nc1ccc(Cl)c(Cl)c1	> 20 µM	3.16 µM	–
C=C1CN(S(=O)(=O)c2ccc(C)cc2)CCCN(Cc2ccsc2)CCCN(S(=O)(=O)c2ccc(C)cc2)C1	> 200 µM	52.5 µM	–
O=C1c2ccccc2C(=O)c2cc3c(cc21)CS(=O)C3	–	–	inactive
COC1OC2COC(c3ccccc3)OC2C(OS(=O)(=O)c2ccc(C)cc2)C1OS(=O)(=O)c1ccc(C)cc1 (stereo not drawn)	–	–	inactive
O=C1C(=C(C(F)(F)Cl)C(F)(F)Cl)C2CCC1C2 (stereo not drawn)	–	–	inactive

SMILES	EC50	IC50	outcome
CC(C)(C)OC(=O)NCCNCCNc1ccccc1	–	–	inactive
O=C(O)C12C3C4(C(=O)O)C1C1(C(=O)O)C2C3(C(=O)O)C41 (stereo not drawn)	> 200 µM	> 200 µM	–
CC1NC(=O)C(C)C(c2ccccc2)N(N=O)C1c1ccccc1 (stereo not drawn)	> 209 µM	186 µM	–
CCOc1ncnc2ccc(Cl)c(I)c12	> 77.6 µM	> 77.6 µM	–
CC(=O)/C(=C/N1CCNC1=S)C(=O)Nc1ccccc1C	> 200 µM	> 200 µM	–
CN(CCSCC(N)C(=O)O)CCSCC(N)C(=O)O (stereo not drawn)	> 87.1 µM	> 87.1 µM	–
COC(=O)NN=C1C(C)(C)C(=O)C1(C)C	> 85.1 µM	> 85.1 µM	–
COc1cc2ccnc3c2c(c1OC)CC1CC(O)C(OC)CC31 (stereo not drawn)	–	–	inactive
C[C@H]1N(O)CC2OC(n3ccc(=O)[nH]c3=O)C(O)C21O (mixture of isomers)	> 200 µM	> 200 µM	–
CCOP(=O)(OCC)/C(=C\NC(=S)N=Nc1c(O)[nH]c2ccccc12)C(=O)OC	> 200 µM	117 µM	–
Cc1cc(C)c(C(=O)c2c(C)ccc(C)c2C(=O)O)c(C)c1	> 200 µM	> 200 µM	–
Cc1c(N=Nc2ccc(Br)cc2)c(=O)n(-c2ccccc2)c(=S)n1-c1nc2ccccc2s1	> 83.2 µM	19.5 µM	–
COC(=O)/C1=C/C2CC(/C=C(/c3ccccc3)C(=O)O1)C2	–	–	inactive
Cc1cc2ccc3c(c2oc1=O)[C@@H](OC(=O)C12CCC(C)(C(=O)O1)C2(C)C)[C@@H](OC(=O)C12CCC(C)(C(=O)O1)C2(C)C)C(C)(C)O3 (stereo partly drawn)	0.209 µM	18.6 µM	–
CCOC(=O)/C(C#N)=C/c1cccc(OC)c1	> 155 µM	> 155 µM	–
Cc1cc(-n2c(C)ccc2C)no1	> 200 µM	> 200 µM	–
Cc1cc(=O)n2c(cc3cccccc32)n1	–	–	inactive
O=C1c2ccccc2S(=O)(=O)c2ccccc21	129 µM	501 µM	–
Cc1nc([N+](=O)[O-])cn1CC(=N)N	> 1120 µM	> 1120 µM	–
CC(C)(C)C(=O)Oc1ccc(/C=C/C(=O)c2ccc(OC(=O)C(C)(C)C)cc2)cc1	> 200 µM	38 µM	–
N#CCCN(CCCN(CCCN(C(=O)Nc1ccccc1)c1ccccc1)C(=O)Nc1ccccc1)C(=O)Nc1ccccc1	> 200 µM	87.1 µM	–
O=CNNC(=O)Nc1ccc(Cl)cc1	> 200 µM	> 200 µM	–
CCCCCCCCCCCCNC(=S)OCCCC	–	–	inactive

SMILES	EC50	IC50	outcome
CC1=C(C)C2(C#N)C(=O)N3C(=NC(c4ccccc4)NC3c3ccccc3)C2(C#N)C(c2ccccc2)N1 (stereo not drawn)	> 100 µM	> 100 µM	–
COc1ccc2oc(C(=O)O)c3c2c1CCC3	–	–	inactive
O=C1c2ccccc2C(=O)N1CCN(CCN1C(=O)c2ccccc2C1=O)Cc1ccccc1	–	–	inactive
CC1(C)CN=C(Nc2ccc(F)c(F)c2)S1	> 200 µM	> 200 µM	–
CC1=CC2OC3CC(OC(=O)/C=C/C=C/C(OCCC4=CC(=O)OC4)C(C)O)C(C)(C2(CO)CC1)C31CO1 (stereo not drawn)	> 67.6 µM	1.51 µM	–
O=C1c2ccccc2C(c2ccccc2)C1c1ccccc1 (stereo not drawn)	> 200 µM	19.5 µM	–
Cc1cc(NC(=O)NC(=O)c2ccccc2[N+](=O)[O-])ccc1Oc1ncc(Cl)cn1	–	–	inactive
CCN1CCC(O)(/C=C/c2ccc(Cl)c(Cl)c2)C(C(=O)/C=C/c2ccc(Cl)c(Cl)c2)C1 (stereo not drawn)	> 25.1 µM	0.513 µM	–
CC1=CC(C)(C)NC(=S)N1c1ccc(C)c(N2C(=S)NC(C)(C)C=C2C)c1	–	–	inactive
C=C1CCC(=O)NC1=O	–	–	inactive
COC1N(C2CC(F)C(CO)O2)C(=O)NC(=O)C1(C)Br (stereo not drawn)	0.00525 µM and 0.00316 µM	5.62 µM and 6.03 µM	–
CCCCCCCCSC(=O)NCCCC	–	–	inactive
Cc1nc2cnc(Nc3ccccc3)nc2n(-c2ccccc2)c1=O	> 200 µM	> 200 µM	–
O=C1C(=Nc2ccc(Nc3ccccc3)cc2)Oc2ccccc21	> 200 µM	3.09 µM	–
CN1Cc2ccccc2C2(COc3ccccc3C2=O)C1 (stereo not drawn)	–	–	inactive
COc1ccccc1/C=C1\Sc2scc(-c3ccc(O)c(O)c3)[n+]2C1=O	> 200 µM	3.89 µM	–
CCN(C(=O)N[C@H](C(=O)N[C@@H](C)C(=O)OC)C(C)C)c1ccccc1	> 200 µM	35.5 µM	–
O=C(N/N=C/c1ccco1)c1cccnc1	> 200 µM	> 200 µM	–
OC1CSCCSCCCSCCSC1	> 126 µM	> 126 µM	–
CCS(=O)c1c2cc(OC)ccc2nc2ccc(OC)cc12 (stereo not drawn)	> 200 µM	1.38 µM	–
N#C/C(=C\n1c(=S)[nH]c2ccc([N+](=O)[O-])cc21)c1cccc(Cl)c1	> 200 µM	120 µM	–
COc1ccc(S(=O)(=O)NNS(C)(=O)=O)cc1OC	> 40.7 µM	> 40.7 µM	–
C/C(=N\NC(=O)c1ccccc1O)c1c(O)cc(C)oc1=O	> 85.1 µM	70.8 µM	–
